Measured values from PubChem BioAssay AID1963870 (Molecular Pharmacology Branch, DTP, NCI, 2024).

Test system: 292921-168-R-J2-PDC KRAS tumor spheroid viability
Assay: Anticancer human tumor 292921-168-R-J2-PDC patient-derived pancreatic carcinoma cell line growth inhibition [KRAS2]
Settings: spheroids with HUVEC and MSC; for IC50: curve of first compound; for viability, T/C: stronger effect = lower value
Summary of the method: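 KRAS-mutant tumor cells were grown as spheroids with HUVEC endothelial cells and human MSCs as stroma. Targeted agents were tested alone and with KRAS pathway inhibitors. Doses started at or near clinical Cmax, or 10 microM, descending half-log.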

[1] = second compound 0.1 µM, first compound 0.0316 µM
[2] = second compound 0.1 µM, first compound 0.1 µM
[3] = second compound 0.1 µM, first compound 0.316 µM
[4] = second compound 0.1 µM, first compound 1 µM
[5] = second compound 0.1 µM, first compound 3.16 µM
[6] = second compound 0.1 µM, first compound 10 µM
[7] = second compound 0.316 µM, first compound 0.0316 µM
[8] = second compound 0.316 µM, first compound 0.1 µM
[9] = second compound 0.316 µM, first compound 0.316 µM
[10] = second compound 0.316 µM, first compound 1 µM
[11] = second compound 0.316 µM, first compound 3.16 µM
[12] = second compound 0.316 µM, first compound 10 µM
[13] = second compound 1 µM, first compound 0.0316 µM
[14] = second compound 1 µM, first compound 0.1 µM
[15] = second compound 1 µM, first compound 0.316 µM
[16] = second compound 1 µM, first compound 1 µM
[17] = second compound 1 µM, first compound 3.16 µM
[18] = second compound 1 µM, first compound 10 µM
[19] = second compound 3.16 µM, first compound 0.0316 µM
[20] = second compound 3.16 µM, first compound 0.1 µM
[21] = second compound 3.16 µM, first compound 0.316 µM
[22] = second compound 3.16 µM, first compound 1 µM
[23] = second compound 3.16 µM, first compound 3.16 µM
[24] = second compound 3.16 µM, first compound 10 µM
[25] = second compound 10 µM, first compound 0.0316 µM
[26] = second compound 10 µM, first compound 0.1 µM
[27] = second compound 10 µM, first compound 0.316 µM
[28] = second compound 10 µM, first compound 1 µM
[29] = second compound 10 µM, first compound 3.16 µM
[30] = second compound 10 µM, first compound 10 µM
[31] = second compound 0.1 µM, first compound 0.01 µM
[32] = second compound 0.316 µM, first compound 0.01 µM
[33] = second compound 1 µM, first compound 0.01 µM
[34] = second compound 3.16 µM, first compound 0.01 µM
[35] = second compound 10 µM, first compound 0.01 µM
[36] = second compound 0.1 µM, first compound 0.00316 µM
[37] = second compound 0.316 µM, first compound 0.00316 µM
[38] = second compound 1 µM, first compound 0.00316 µM
[39] = second compound 3.16 µM, first compound 0.00316 µM
[40] = second compound 10 µM, first compound 0.00316 µM
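Note: drug exposure lasted seven days after spheroids formed for three days.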
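Throughout, for viability, T/C: percent of DMSO vehicle control viability which is 100%.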

Row | Structure (SMILES) | IC50 (second compound 0.1 µM) [nM] | IC50 (second compound 0.316 µM) [nM] | IC50 (second compound 1 µM) [nM] | IC50 (second compound 3.16 µM) [nM] | IC50 (second compound 10 µM) [nM] | viability, T/C [1] [%] | viability, T/C [2] [%] | viability, T/C [3] [%] | viability, T/C [4] [%] | viability, T/C [7] [%] | viability, T/C [8] [%] | viability, T/C [9] [%] | viability, T/C [10] [%] | viability, T/C [13] [%] | viability, T/C [14] [%] | viability, T/C [15] [%] | viability, T/C [19] [%] | viability, T/C [20] [%] | viability, T/C [25] [%] | viability, T/C [26] [%] | also measured
1 | CC(C)NCC(C(=O)N1CCN(c2ncnc3c2C(C)CC3O)CC1)c1ccc(Cl)cc1 (stereo not given) + COc1cc2nc(C)nc(NC(C)c3cc(N)cc(C(F)(F)F)c3)c2cc1OC1CCOC1 | 8850 | 8100 | 5010 | 1250 | < 31.6 | 87.5 | 84.8 | 78.8 | 77.8 | 82.7 | 82 | 80.5 | 75.3 | 83.2 | 71.1 | 63.8 | 58.1 | 51.1 | 20.3 | 19.7 | viability, T/C [5]: 77.4%; viability, T/C [6]: 46.3%; viability, T/C [11]: 74.4%; viability, T/C [12]: 44.7%; viability, T/C [16]: 63.2%; viability, T/C [17]: 60.9%; viability, T/C [18]: 40.2%; viability, T/C [21]: 50.2%; viability, T/C [22]: 50.4%; viability, T/C [23]: 46.9%; viability, T/C [24]: 30.6%; viability, T/C [27]: 18.6%; viability, T/C [28]: 18%; viability, T/C [29]: 15.4%; viability, T/C [30]: 9.75%
2 | CC1(C)CCC(CN2CCN(c3ccc(C(=O)NS(=O)(=O)c4ccc(NCC5CCOCC5)c([N+](=O)[O-])c4)c(Oc4cnc5[nH]ccc5c4)c3)CC2)=C(c2ccc(Cl)cc2)C1 + COc1cc2nc(C)nc(NC(C)c3cc(N)cc(C(F)(F)F)c3)c2cc1OC1CCOC1 | 2090 | 2180 | 1820 | 1380 | < 31.6 | 105 | 94.4 | 91.9 | 93.4 | 88.9 | 81 | 88.9 | 91.6 | 84.1 | 80.5 | 83 | 70.8 | 70.6 | 36.8 | 31 | viability, T/C [5]: 25.6%; viability, T/C [6]: 14.3%; viability, T/C [11]: 32.1%; viability, T/C [12]: 8.02%; viability, T/C [16]: 85.8%; viability, T/C [17]: 19.5%; viability, T/C [18]: 8.25%; viability, T/C [21]: 73.2%; viability, T/C [22]: 63.4%; viability, T/C [23]: 15.6%; viability, T/C [24]: 8.28%; viability, T/C [27]: 33.6%; viability, T/C [28]: 27.3%; viability, T/C [29]: 7.17%; viability, T/C [30]: 6.32%
3 | CC1COCCN1c1cc(-c2ccnn2C)c2ccnc(-c3ccn[nH]3)c2n1 (stereo not given) + COc1cc2nc(C)nc(NC(C)c3cc(N)cc(C(F)(F)F)c3)c2cc1OC1CCOC1 | < 10 | < 10 | < 10 | < 10 | < 10 | 14.4 | 11.1 | 10.6 | 12.1 | 12.9 | 10.1 | 9.13 | 10.8 | 11.6 | 9.3 | 8.99 | 12.1 | 9.36 | 12.5 | 9.42 | viability, T/C [31]: 30.3%; viability, T/C [5]: 14.1%; viability, T/C [32]: 25.2%; viability, T/C [11]: 12.5%; viability, T/C [33]: 25.6%; viability, T/C [16]: 11.2%; viability, T/C [17]: 13.2%; viability, T/C [34]: 19.4%; viability, T/C [21]: 8.32%; viability, T/C [22]: 10.4%; viability, T/C [23]: 11.8%; viability, T/C [35]: 12.9%; viability, T/C [27]: 8.21%; viability, T/C [28]: 8.78%; viability, T/C [29]: 7.99%
4 | CCN1CCN(Cc2ccc(Nc3ncc(F)c(-c4cc(F)c5nc(C)n(C(C)C)c5c4)n3)nc2)CC1 + COc1cc2nc(C)nc(NC(C)c3cc(N)cc(C(F)(F)F)c3)c2cc1OC1CCOC1 | 20.7 | 13.2 | 9.76 | 3.28 | < 3.16 | 42.2 | 36 | 29.8 | 22.2 | 39.2 | 32.8 | 28.4 | 22.1 | 40.3 | 30.8 | 25.7 | 30.8 | 22.9 | 14.7 | 14.8 | viability, T/C [36]: 74.7%; viability, T/C [31]: 60.1%; viability, T/C [37]: 67.4%; viability, T/C [32]: 54.1%; viability, T/C [38]: 60.7%; viability, T/C [33]: 49.7%; viability, T/C [16]: 21.3%; viability, T/C [39]: 51%; viability, T/C [34]: 35.6%; viability, T/C [21]: 22%; viability, T/C [22]: 18.6%; viability, T/C [40]: 22.8%; viability, T/C [35]: 15.9%; viability, T/C [27]: 12.2%; viability, T/C [28]: 0.58%
5 | Cn1ncnc1[C@H]1c2n[nH]c(=O)c3cc(F)cc(c23)N[C@@H]1c1ccc(F)cc1 + COc1cc2nc(C)nc(NC(C)c3cc(N)cc(C(F)(F)F)c3)c2cc1OC1CCOC1 | > 100 | > 100 | > 100 | 37.3 | < 0.316 | 68.6 | 60.5 | – | – | 70.3 | 64.3 | – | – | 69.6 | 57.4 | – | 52.1 | 42 | 23.6 | 23.9 | viability, T/C (second compound 0.1 µM, first compound 0.000316 µM): 93.5%; viability, T/C (second compound 0.1 µM, first compound 0.001 µM): 92.1%; viability, T/C [36]: 85.8%; viability, T/C [31]: 85.7%; viability, T/C (second compound 0.316 µM, first compound 0.000316 µM): 84.2%; viability, T/C (second compound 0.316 µM, first compound 0.001 µM): 87%; viability, T/C [37]: 84.8%; viability, T/C [32]: 84.4%; viability, T/C (second compound 1 µM, first compound 0.000316 µM): 84%; viability, T/C (second compound 1 µM, first compound 0.001 µM): 84.9%; viability, T/C [38]: 74.9%; viability, T/C [33]: 73.3%; viability, T/C (second compound 3.16 µM, first compound 0.000316 µM): 63.5%; viability, T/C (second compound 3.16 µM, first compound 0.001 µM): 60.1%; viability, T/C [39]: 56.4%; viability, T/C [34]: 57.7%; viability, T/C (second compound 10 µM, first compound 0.000316 µM): 26.1%; viability, T/C (second compound 10 µM, first compound 0.001 µM): 27.6%; viability, T/C [40]: 30.6%; viability, T/C [35]: 22.6%
